Where “and” joins values, the source holds several entries; their conditions need not be identical. Identical values can stand only once. Where a SMILES comes first, the peptide text is derived from it. [ ]: non-standard residue; d: D form. The star is where a group is joined. NHCH2CH2OH = OCCN*; For = O=C*
Tests used:
rabbit red blood cells = conditions: red cells of rabbit, 2 h
[1] = system: Enterococcus faecalis JCM5803; conditions: for antibacterial activity/MIC: E. faecalis; for Antibacterial activity MIC: JCM5803
Outline: (§1)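 MICs by CLSI broth microdilution in cation-adjusted Mueller Hinton Broth, with 5% laked horse blood added for streptococci, over 64–0.00024 µg/mL peptide.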

[2] = system: Listeria monocytogenes 10403S; conditions: for antibacterial activity/MIC: L. monocytogenes
Outline: as §1

[3] = system: Streptococcus agalactiae JCM5671; conditions: for Antibacterial activity MIC: JCM5671; for antibacterial activity/MIC: S. agalactiae
Outline: as §1

[4] = system: Streptococcus pneumoniae NBRC 102642; conditions: for Antibacterial activity MIC: NBRC 102642; for antibacterial activity/MIC: S. pneumoniae
Outline: as §1

[5] = system: Streptococcus pyogenes SSI-9; conditions: for antibacterial activity/MIC: S. pyogenes; for Antibacterial activity MIC: SSI-9
Outline: as §1

[6] = system: MSSA1 (methicillin-susceptible Staphylococcus aureus); type: cell-based
[7] = Membrane disruption assay of purified peptides (carboxyfluorescein leakage); type: biochemical; design: key: % lysis; Triton X-100 = 100%, DMSO = 0%; conditions: three replicate lines

SMILES	Hemolytic activity HC10 (concentration causing 10% hemolysis) (rabbit red blood cells) [nM]	antibacterial activity/MIC [1] [µg/mL]	Antibacterial activity MIC [1] [µM]	antibacterial activity/MIC [2] [µg/mL]	Antibacterial activity MIC [3] [µM]	antibacterial activity/MIC [3] [µg/mL]	Antibacterial activity MIC [4] [µM]	antibacterial activity/MIC [4] [µg/mL]	antibacterial activity/MIC [5] [µg/mL]	Antibacterial activity MIC [5] [µM]	antibacterial activity/MIC [6] [µg/mL]	Supplementary Figure 1 dose-response value ([7]; concentration 0.000512 nM)	Supplementary Figure 1 dose-response value ([7]; concentration 0.00256 nM)	Supplementary Figure 1 dose-response value ([7]; concentration 0.0128 nM)	Supplementary Figure 1 dose-response value ([7]; concentration 0.064 nM)	Supplementary Figure 1 dose-response value ([7]; concentration 0.32 nM)	Supplementary Figure 1 dose-response value ([7]; concentration 1.6 nM)	Supplementary Figure 1 dose-response value ([7]; concentration 8 nM)	Supplementary Figure 1 dose-response value ([7]; concentration 40 nM)	Supplementary Figure 1 dose-response value ([7]; concentration 200 nM)	also measured
CC(C)C[C@@H](NC(=O)[C@H](C)NC(=O)CNC(=O)[C@@H](NC=O)C(C)C)C(=O)N[C@@H](C)C(=O)N[C@@H](C(=O)N[C@H](C(=O)N[C@@H](C(=O)N[C@@H](Cc1c[nH]c2ccccc12)C(=O)N[C@H](CC(C)C)C(=O)N[C@@H](Cc1c[nH]c2ccccc12)C(=O)N[C@H](CC(C)C)C(=O)N[C@@H](Cc1c[nH]c2ccccc12)C(=O)N[C@H](CC(C)C)C(=O)N[C@@H](Cc1c[nH]c2ccccc12)C(=O)NCCO)[C@H](C)O)C(C)C)C(C)C [B13] (For-VGA[dL]A[dV]V[dT]W[dL]W[dL]W[dL]W-NHCH2CH2OH)	> 3000	4	2.1	2	4.2	8	0.033	0.063	1	0.53	8	12.6222 and 8.681 and 14.1878	5.0387 and -8.856 and 0.4118	17.1111 and 10.8226 and 6.743	2.158 and 0.4656 and 8.156	0.4983 and 9.035 and 4.354	8.628 and -5.518 and 5.634	16.7483 and 16.868 and 17.3839	8.5256 and 14.4302 and 19.7817	29.195 and 23.7339 and 11.0358	Supplementary Figure 1 dose-response value ([7]; concentration 1000 nM): 32.784 and 37.4398 and 33.6736; Supplementary Figure 1 dose-response value ([7]; concentration 5000 nM): 66.9777 and 54.6664 and 50.7322
CC(C)C[C@@H](NC(=O)[C@H](Cc1c[nH]c2ccccc12)NC(=O)[C@H](NC(=O)[C@@H](NC(=O)[C@H](NC(=O)[C@H](C)NC(=O)[C@H](NC(=O)[C@H](C)NC(=O)CNC(=O)[C@@H](NC=O)C(C)C)C(C)C)C(C)C)C(C)C)C(C)C)C(=O)N[C@@H](Cc1c[nH]c2ccccc12)C(=O)N[C@@H](C(=O)N[C@@H](Cc1c[nH]c2ccccc12)C(=O)N[C@@H](C(=O)N[C@@H](Cc1c[nH]c2ccccc12)C(=O)NCCO)C(C)C)C(C)C [B01] (For-VGA[dV]A[dV]V[dV]W[dL]W[dV]W[dV]W-NHCH2CH2OH)	1100	0.5	0.27	8	8.7	16	0.0021	0.0039	0.03	0.016	16	5.613 and 12.0264 and 5.319	11.158 and 7.538 and 10.5473	8.299 and 14.9537 and 14.0939	5.499 and 8.531 and 5.078	13.2144 and 15.7695 and 7.692	9.848 and 4.6318 and 9.4348	14.4288 and 20.3717 and 10.7944	26.5947 and 14.0138 and 18.3251	33.1976 and 27.0157 and 30.6543	Antibacterial activity MIC ([2]; 10403S): 4.3 µM; Supplementary Figure 1 dose-response value ([7]; concentration 1000 nM): 29.7517 and 27.7024 and 34.1347; Supplementary Figure 1 dose-response value ([7]; concentration 5000 nM): 48.3001 and 45.6479 and 77.7437

Source: publication PMC7531004, “Discovery of gramicidin A analogues with altered activities by multidimensional screening of a one-bead-one-compound library” (Nature Communications, 2020)
